In US20240116946A1 (Gilead Sciences, Inc., priority 2022, published 2024):
Where two headings read alike, the source gives them in different places.

Key:
[1] = molecular target: recombinant SARS-CoV-2 Main protease (Mpro) (Severe acute respiratory syndrome coronavirus 2 (2019-nCoV) (SARS-CoV-2), UniProt P0DTD1); assay: Cov Mpro Biochemical IC50 Assay; conditions: recombinant SARS-CoV-2 Mpro 7.5 nM, fluorogenic peptide substrate 40 μM; read-out: MPro IC50
SARS-CoV-2-NLuc = assay: microbe, parasite or virus in culture; assay type: cell-based, SARS Coronavirus 2
[2] = Severe acute respiratory syndrome coronavirus, 48 h, read-out: MPro EC50
[3] = Severe acute respiratory syndrome coronavirus, 48 h; read-out: MPro EC50

## COCCn1c(=O)n(-c2cncc3ccccc23)c(=O)c2sc(-c3ccccc3Cl)cc21 [Example 470, 6-(2-chlorophenyl)-3-(4-isoquinolyl)-1-(2-methoxyethyl)thieno[3,2-d]pyrimidine-2,4-dione]
[1]
  IC50: 46.8 nM
SARS-CoV-2-NLuc; [2]
  EC50: 71.3 nM

## O=c1[nH]c2cc(-c3c(Cl)cccc3OCc3cscn3)ccc2c(=O)n1-c1cncc2ccccc12 [Example 471, 7-[2-chloro-6-(thiazol-4-ylmethoxy)phenyl]-3-(4-isoquinolyl)-1H-quinazoline-2,4-dione]
[1]
  IC50: 97.2 nM
SARS-CoV-2-NLuc; read-out: MPro EC50
  EC50: 478 nM

## Cc1nn(C2CCNCC2)cc1-c1cccc(Cl)c1-c1ccc2c(=O)n(-c3cncc4ccccc34)c(=O)[nH]c2c1 [Example 472, 7-[2-chloro-6-[3-methyl-1-(4-piperidyl)pyrazol-4-yl]phenyl]-3-(4-isoquinolyl)-1H-quinazoline-2,4-dione]
[1]
  IC50: 5.11 nM
SARS-CoV-2-NLuc; [2]
  EC50: 188 nM

## Cc1c(-c2cccc(Cl)c2-c2ccc3c(=O)n(-c4cncc5ccccc45)c(=O)[nH]c3c2)cnn1C1CCNCC1 [Example 473]
[1]
  IC50: 17.5 nM
SARS-CoV-2-NLuc; [2]
  EC50: 1810 nM

## O=c1[nH]c2cc(-c3c(Cl)cccc3-c3cnn4c3CNCC4)ccc2c(=O)n1-c1cncc2ccccc12 [Example 474]
[1]
  IC50: 14 nM
SARS-CoV-2-NLuc; [2]
  EC50: 124 nM

## O=c1[nH]c2cc(-c3ccccc3Cl)sc2c(=O)n1-c1cncc2ccsc12 [Example 479, 6-(2-chlorophenyl)-3-thieno[3,2-c]pyridin-7-yl-1H-thieno[3,2-d]pyrimidine-2,4-dione]
[1]
  IC50: 16.7 nM
SARS-CoV-2-NLuc; [2]
  EC50: 20.9 nM

## COc1ccc(Cl)c(-c2cc3[nH]c(=O)n(-c4cncc5ccsc45)c(=O)c3s2)c1 [Example 480]
[1]
  IC50: 4.97 nM
SARS-CoV-2-NLuc; [2]
  EC50: 10.2 nM

## COc1cc(-c2cc3[nH]c(=O)n(-c4cncc5ccsc45)c(=O)c3s2)c(Cl)cc1F [Example 482]
[1]
  IC50: < 2.54 nM
SARS-CoV-2-NLuc; [2]
  EC50: 4.44 nM

## COc1ccc(C#N)c(-c2cc3[nH]c(=O)n(-c4cncc5ccsc45)c(=O)c3s2)c1 [Example 483]
[1]
  IC50: < 2.54 nM
SARS-CoV-2-NLuc; [2]
  EC50: 18.1 nM

## COc1ccc(C#N)c(-c2cc3[nH]c(=O)n(-c4cncc5ncsc45)c(=O)c3s2)c1 [Example 484]
[1]
  IC50: 38.9 nM
SARS-CoV-2-NLuc; [2]
  EC50: 482 nM

## COc1ccc(Cl)c(-c2cc3[nH]c(=O)n(-c4cncc5ncsc45)c(=O)c3s2)c1 [Example 485]
[1]
  IC50: 9.6 nM
SARS-CoV-2-NLuc; [2]
  EC50: 62.6 nM

## COc1ccc(Cl)c(-c2cc3[nH]c(=O)n(-c4cncc5ncsc45)c(=O)c3s2)c1 [Example 486]
[1]
  IC50: 5.9 nM
SARS-CoV-2-NLuc; read-out: MPro EC50
  EC50: 29.4 nM

## COc1ccc(Cl)c(-c2cc3[nH]c(=O)n(-c4cncc5nc(C(F)(F)F)sc45)c(=O)c3s2)c1 [Example 487]
[1]
  IC50: 908 nM
SARS-CoV-2-NLuc; [2]
  EC50: 742 nM

## COc1cc(-c2cc3[nH]c(=O)n(-c4cncc5nc(C(F)(F)F)sc45)c(=O)c3s2)c(Cl)cc1F [Example 488]
[1]
  IC50: 1020 nM
SARS-CoV-2-NLuc; [2]
  EC50: 618 nM

## COc1ccc(Cl)c(-c2cc3[nH]c(=O)n(-c4cncc5c4ccn5C)c(=O)c3s2)c1 [Example 489]
[1]
  IC50: 2.63 nM
SARS-CoV-2-NLuc; [2]
  EC50: 20.4 nM

## O=c1[nH]c2cc(-c3ccccc3Cl)sc2c(=O)n1-c1cncc2ccoc12 [Example 490]
[1]
  IC50: 20.8 nM
SARS-CoV-2-NLuc; [2]
  EC50: 55.8 nM

## Cn1ncc2c(-n3c(=O)[nH]c4cc(-c5ccccc5Cl)sc4c3=O)cncc21 [Example 491]
[1]
  IC50: 17.3 nM
SARS-CoV-2-NLuc; [2]
  EC50: 64.3 nM

## O=c1[nH]c2cc(-c3ccccc3Cl)sc2c(=O)n1-c1cncc2c1cnn2CC(F)(F)F [Example 492]
[1]
  IC50: > 50000 nM
SARS-CoV-2-NLuc; [2]
  EC50: 4840 nM

## COc1ccc(Cl)c(-c2cc3[nH]c(=O)n(-c4cncc5ccoc45)c(=O)c3s2)c1 [Example 493]
[1]
  IC50: 7.94 nM
SARS-CoV-2-NLuc; [2]
  EC50: 33.5 nM

## O=c1[nH]c2cc(-c3ccccc3Cl)sc2c(=O)n1-c1cncc2cn(CC(F)(F)F)nc12 [Example 494]
[1]
  IC50: 36 nM
SARS-CoV-2-NLuc; [2]
  EC50: 118 nM

## Cn1ncc2cncc(-n3c(=O)[nH]c4cc(-c5ccccc5Cl)sc4c3=O)c21 [Example 495]
[1]
  IC50: 6.41 nM
SARS-CoV-2-NLuc; [2]
  EC50: 17.2 nM

## O=c1[nH]c2cc(-c3ccccc3Cl)sc2c(=O)n1-c1cncc2cnn(CC(F)(F)F)c12 [Example 496]
[1]
  IC50: 31.6 nM
SARS-CoV-2-NLuc; [2]
  EC50: 138 nM

## COc1ccc(Cl)c(-c2cc3[nH]c(=O)n(-c4cncc5c4cnn5C)c(=O)c3s2)c1 [Example 497]
[1]
  IC50: 6.24 nM
SARS-CoV-2-NLuc; [3]
  EC50: 19.1 nM

## COc1ccc(Cl)c(-c2cc3[nH]c(=O)n(-c4cncc5cnn(C)c45)c(=O)c3s2)c1 [Example 498]
[1]
  IC50: < 2.54 nM
SARS-CoV-2-NLuc; [2]
  EC50: < 5.96 nM

## COc1ccc(Cl)c(-c2cc3[nH]c(=O)n(-c4cncc5c4cnn5CC(F)(F)F)c(=O)c3s2)c1 [Example 499]
[1]
  IC50: 1920 nM
SARS-CoV-2-NLuc; [2]
  EC50: 6950 nM

## COc1ccc(Cl)c(-c2cc3[nH]c(=O)n(-c4cncc5cnn(CC(F)(F)F)c45)c(=O)c3s2)c1 [Example 500]
[1]
  IC50: 9.12 nM
SARS-CoV-2-NLuc; [2]
  EC50: 42.6 nM

## COc1ccc(Cl)c(-c2cc3[nH]c(=O)n(-c4cncc5nn(CC(F)(F)F)cc45)c(=O)c3s2)c1 [Example 501]
[1]
  IC50: 14.8 nM
SARS-CoV-2-NLuc; [3]
  EC50: 93.9 nM

## COc1ccc(Cl)c(-c2cc3[nH]c(=O)n(-c4cncc5cn(CC(F)(F)F)nc45)c(=O)c3s2)c1 [Example 502]
[1]
  IC50: < 2.54 nM
SARS-CoV-2-NLuc; [2]
  EC50: 34.8 nM

## COc1cc(-c2cc3[nH]c(=O)n(-c4cncc5cnn(C)c45)c(=O)c3s2)c(Cl)cc1F [Example 505, 6-(2-chloro-4-fluoro-5-methoxyphenyl)-3-(1-methyl-1H-pyrazolo[4,3-c]pyridin-7-yl)thieno[3,2-d]pyrimidine-2,4(1H,3H)-dione]
[1]
  IC50: 5.45 nM
SARS-CoV-2-NLuc; [2]
  EC50: 9.97 nM

## COc1ccc(C#N)c(-c2cc3[nH]c(=O)n(-c4cncc5cnn(C)c45)c(=O)c3s2)c1 [Example 506]
[1]
  IC50: 19.6 nM
SARS-CoV-2-NLuc; [2]
  EC50: 99.5 nM

## COc1cc(-c2cc3[nH]c(=O)n(-c4cncc5cnn(CC(F)(F)F)c45)c(=O)c3s2)c(Cl)cc1F [Example 507]
[1]
  IC50: 18.8 nM
SARS-CoV-2-NLuc; [2]
  EC50: 39.2 nM

## COc1ccc(C#N)c(-c2cc3[nH]c(=O)n(-c4cncc5cnn(CC(F)(F)F)c45)c(=O)c3s2)c1 [Example 508]
[1]
  IC50: 21.2 nM
SARS-CoV-2-NLuc; [2]
  EC50: 205 nM

## COc1ccc(Cl)c(-c2cc3[nH]c(=O)n(-c4cncc5cc(C(C)(C)O)sc45)c(=O)c3s2)c1 [Example 512, 6-(2-chloro-5-methoxy-phenyl)-3-[2-(1-hydroxy-1-methyl-ethyl)thieno[3,2-c]pyridin-7-yl]-1H-thieno[3,2-d]pyrimidine-2,4-dione]
[1]
  IC50: 5.71 nM
SARS-CoV-2-NLuc; [2]
  EC50: 26.9 nM

## COc1cc(-c2cc3[nH]c(=O)n(-c4cncc5cc(C(C)(C)O)sc45)c(=O)c3s2)c(Cl)cc1F [Example 513]
[1]
  IC50: 7.18 nM
SARS-CoV-2-NLuc; [2]
  EC50: 45.9 nM

## COc1ccc(C#N)c(-c2cc3[nH]c(=O)n(-c4cncc5cc(C(C)(C)O)sc45)c(=O)c3s2)c1 [Example 514]
[1]
  IC50: 15.8 nM
SARS-CoV-2-NLuc; [2]
  EC50: 568 nM

## COc1ccc(Cl)c(-c2cc3[nH]c(=O)n(-c4cncc5sc(C(C)(C)O)cc45)c(=O)c3s2)c1 [Example 515]
[1]
  IC50: 8.51 nM
SARS-CoV-2-NLuc; [2]
  EC50: 17.5 nM

## COc1ccc(Cl)c(-c2cc3[nH]c(=O)n(-c4cncc5sc(C(C)(C)O)c(C)c45)c(=O)c3s2)c1 [Example 516]
[1]
  IC50: 5.27 nM
SARS-CoV-2-NLuc; [2]
  EC50: 7.87 nM

## Cc1nn(C)cc1-c1cccc(Cl)c1-c1cc2[nH]c(=O)n(-c3cncc4ccccc34)c(=O)c2s1 [Example 518, 6-[2-chloro-6-(1,3-dimethylpyrazol-4-yl)phenyl]-3-(4-isoquinolyl)-1H-thieno[3,2-d]pyrimidine-2,4-dione]
[1]
  IC50: 9.15 nM
SARS-CoV-2-NLuc; [2]
  EC50: 5.49 nM

## Cc1cn(C)nc1-c1cccc(Cl)c1-c1cc2[nH]c(=O)n(-c3cncc4ccccc34)c(=O)c2s1 [Example 519]
[1]
  IC50: 10.9 nM
SARS-CoV-2-NLuc; [2]
  EC50: 31.6 nM

## O=c1[nH]c2cc(-c3c(Cl)cccc3-c3cn4ncnc4c4c3CCC4)sc2c(=O)n1-c1cncc2ccccc12 [Example 520]
[1]
  IC50: < 2.54 nM
SARS-CoV-2-NLuc; [2]
  EC50: 14.6 nM

## Cc1ncc(-c2cccc(Cl)c2-c2cc3[nH]c(=O)n(-c4cncc5ccccc45)c(=O)c3s2)n1C [Example 521]
[1]
  IC50: 14.9 nM
SARS-CoV-2-NLuc; [2]
  EC50: 129 nM

## O=c1[nH]c2cc(-c3c(Cl)cccc3C3=CCOCC3)sc2c(=O)n1-c1cncc2ccccc12 [Example 522]
[1]
  IC50: 9.84 nM
SARS-CoV-2-NLuc; [2]
  EC50: 5.1 nM

## O=c1[nH]c2cc(-c3c(Cl)cccc3-c3cnn4c3COCC4)sc2c(=O)n1-c1cncc2ccccc12 [Example 523]
[1]
  IC50: 4.05 nM
SARS-CoV-2-NLuc; [2]
  EC50: 5.79 nM

## CC1(C)Cc2c(-c3cccc(Cl)c3-c3cc4[nH]c(=O)n(-c5cncc6ccccc56)c(=O)c4s3)cnn2C1 [Example 524]
[1]
  IC50: 7.83 nM
SARS-CoV-2-NLuc; [2]
  EC50: 5.95 nM

## Cn1cncc1-c1cccc(Cl)c1-c1cc2[nH]c(=O)n(-c3cncc4ccccc34)c(=O)c2s1 [Example 525]
[1]
  IC50: 10.4 nM
SARS-CoV-2-NLuc; [2]
  EC50: 81.2 nM

## Cn1ncc(-c2cccc(Cl)c2-c2cc3[nH]c(=O)n(-c4cncc5ccccc45)c(=O)c3s2)c1C(F)(F)F [Example 526]
[1]
  IC50: 15.7 nM
SARS-CoV-2-NLuc; [2]
  EC50: 8.34 nM

## Cn1cc(-c2cccc(Cl)c2-c2cc3[nH]c(=O)n(-c4cncc5ccccc45)c(=O)c3s2)c(C2CC2)n1 [Example 527]
[1]
  IC50: 3.22 nM
SARS-CoV-2-NLuc; [2]
  EC50: 1.45 nM

## O=c1[nH]c2cc(-c3c(Cl)cccc3-c3cnn4c3OCCC4)sc2c(=O)n1-c1cncc2ccccc12 [Example 528]
[1]
  IC50: 7.09 nM
SARS-CoV-2-NLuc; [2]
  EC50: 7.22 nM

## O=c1[nH]c2cc(-c3c(Cl)cccc3-c3cnc4n3CCC4)sc2c(=O)n1-c1cncc2ccccc12 [Example 529]
[1]
  IC50: 8.44 nM
SARS-CoV-2-NLuc; [2]
  EC50: 34.1 nM

## N#Cc1ccccc1-c1cc2[nH]c(=O)n(-c3cncc4ccccc34)c(=O)c2s1 [Example 530, 2-(3-(isoquinolin-4-yl)-2,4-dioxo-1,2,3,4-tetrahydrothieno[3,2-d]pyrimidin-6-yl)benzonitrile]
[1]
  IC50: 12 nM
SARS-CoV-2-NLuc; [2]
  EC50: 84.3 nM

## N#Cc1cnccc1-c1cc2[nH]c(=O)n(-c3cncc4ccccc34)c(=O)c2s1 [Example 531]
[1]
  IC50: 50 nM
SARS-CoV-2-NLuc; [2]
  EC50: 518 nM
